The source of these data is patent publication US5652334A, “Method for design of substances that enhance memory and improve the quality of life” (City of Hope, priority 1993, dated 1997).

Test [1] deals with CD-1 male mice. To be noted: cited from earlier work; for amnestic effect on retention of FAAT (earlier publications): post-training ICV, references 1 and 12.
Test [2] deals with CD-1 male mice. The experiment in a line: Footshock active avoidance training (FAAT) in T-maze, amnesia test in well-trained mice, post-training ICV injection. Type of test: in vivo. To be noted: for amnestic effect on retention of FAAT: 6.14 nmol of peptide per mouse (except dose-response curves), well-trained mice, retention tested one week later; for amnestic efficacy/potency compared with another peptide: dose-response curves / FIG. 19. On the procedure: (§1) Test Animals. After 1 week in the laboratory, CD-1 male mice obtained from Charles River Breeding Laboratories were caged individually 24-28 hours prior to training and remained singly housed until retention was tested one week later. Animal rooms were on a 12 hour light/dark cycle with lights going on at the hour of 0600. Median body weight was 35 g, with a range of 33-38 g. Mice were assigned randomly to groups of 15 in the experiments reported in FIGS. 1-18 and groups of 10 for the dose-response curves (FIGS. 19 and 20) and were trained and tested between the hours of 0700 and 1500.
Peptides Tested. With the exception of Val Phe and Phe Val from Sigma, all peptides used in these studies were synthesized and analyzed to establish purity by standard methods at the Beckman Research Institute. Peptides were dissolved in: (1) saline; (2) 8% vol/vol dimethyl sulfoxide; (3) glacial acetic acid neutralized with […]; or (4) NaOH neutralized with HCl.
With exception of dose-response curves, the experiments reported below tested whether or not there was an amnestic effect at 6.14 nmol of peptide per mouse.
(§2) Apparatus, Training and Testing Procedures. The T-maze used for footshock active avoidance training (FAAT) consisted of a black plastic alley (46 cm long) with a start box at one end and two goal boxes (17.5 cm long) at the other. The start box was separated from the alley by a plastic guillotine door that prevented movement down the alley until training began. The alley was 12.5 cm deep and 9.8 cm wide. An electrifiable stainless steel rod floor ran throughout the maze.
(§3) Mice were not permitted to explore the maze before training. A block of training trials began when a mouse was placed in the start box. The guillotine door was raised and a muffled doorbell-type buzzer sounded simultaneously; footshock was 5 seconds later through a scrambled grid floor shocker (Colbourn Instruments, Model E13-08). The goal box first entered during the first set of trials was designated as "incorrect", and footshock was continued until the mouse entered the other goal box, which in all subsequent trials was designated "correct" for the particular mouse. At the end of each group of trials, the mouse was removed to its home cage.
As training proceeded, a mouse made one of two types of responses. A response latency longer than 5 seconds was classed as an escape from the footshock. A response latency less than or equal to 5 seconds was considered an avoidance, since the mouse avoided receiving a footshock. Two exclusion criteria were applied to reduce learning variability among mice, as follows. On the first training trials, mice with escape latencies greater than 20 seconds were discarded. Mice not having at least one errorless escape latency between 1.5 and 3.5 seconds on training trials 3 or 4 were excluded. […] Mice received five such training trials. One week after training and post-trial administration of vehicle alone or vehicle containing test substance, T-maze training was resumed until each mouse made five avoidance responses in six consecutive training trials (trials to criterion). The recall score was taken to be the percentage of tested mice remembering original training.
In these instances, training was performed under conditions that tend to maximize learning (sound intensity, 65 decibels; footshock current, 0.35 mA; intertrial interval, 45 seconds).

Test [3] relates to CD-1 male mice. The experiment in a line: FAAT in T-maze, memory-enhancement test in weakly trained mice (poor retention in vehicle controls), post-training ICV injection. Type of test: in vivo. To be noted: for Lowest Concentration For Significant Memory Enhancement: Table 1. On the procedure: as §1
Peptides Tested. With the exception of Val Phe and Phe Val from Sigma, all peptides used in these studies were synthesized and analyzed to establish purity by standard methods at the Beckman Research Institute. Peptides were dissolved in: (1) saline; (2) 8% vol/vol dimethyl sulfoxide; (3) glacial acetic acid neutralized with […]; or (4) NaOH neutralized with HCl. […] Analysis of variance showing insignificant differences among the latter, the value for the most frequently employed (No. 2 above) was used for comparison with groups receiving test peptides.
as §2, §3
As training proceeded, a mouse made one of two types of responses. A response latency longer than 5 seconds was classed as an escape from the footshock. A response latency less than or equal to 5 seconds was considered an avoidance, since the mouse avoided receiving a footshock. Two exclusion criteria were applied to reduce learning variability among mice, as follows. On the first training trials, mice with escape latencies greater than 20 seconds were discarded. Mice not having at least one errorless escape latency between 1.5 and 3.5 seconds on training trials 3 or 4 were excluded. The total exclusions were fewer than 15%. Mice received five such training trials. One week after training and post-trial administration of vehicle alone or vehicle containing test substance, T-maze training was resumed until each mouse made five avoidance responses in six consecutive training trials (trials to criterion). The recall score was taken to be the percentage of tested mice remembering original training.
Well-trained animals (recall score approximately 80%) were used to determine whether or not administered substances could cause amnesia. In these instances, training was performed under conditions that tend to maximize learning (sound intensity, 65 decibels; footshock current, 0.35 mA; intertrial interval, 45 seconds). In the cases in which it was desired to detect whether or not there was an enhancing effect on memory, training conditions were adjusted so that the initial recall score in vehicle controls was only approximately 20% (sound intensity, 55 decibels; footshock current, 0.30 mA; intertrial interval, 30 seconds). […]

Test [4] concerns hippocampal neurons in culture. To be noted: reference 17; cited from earlier work.
The conditions of test [5]: references 13-16; cited from earlier work.

Ends that are not written are not given here. Peptide text beside a SMILES is read from it.

As for “β-(1-18): β-A4 fragment as printed in b47; probably the β-(1-28) homologue of reference 1 (DAEFRHDSGYEVHHQKLV; Amyloid-beta protein 42; UniProt P05067 672-689, looked up, fragment)”, the “dose at which active (amnestic)” value with CD-1 male mice [1] (ICV, reference 1) is 1.5 nmol per mouse.
Consider `CC(C)[C@H](N)C(=O)N[C@@H](Cc1ccccc1)C(=O)N[C@H](C(=O)O)[C@@H](C)O` [Val Phe Thr] (H-Val-Phe-Thr-OH), for which the “amnestic effect on retention of FAAT” value in the test on CD-1 male mice [2] (post-training ICV) is “amnestic”.
In the case of `NC(=O)CC[C@H](N)C(=O)N[C@@H](Cc1ccccc1)C(=O)N[C@@H](Cc1ccccc1)C(=O)NCC(=O)O` [Gln Phe Phe Gly] (H-QFFG-OH), the “dose at which statistically significant memory enhancement found” value in the test on CD-1 male mice [3] (weakly trained animals) is listed as 10^-14 moles/mouse. Also, in the test on CD-1 male mice [3] (weakly trained mice), the “memory-enhancing potency compared with other peptides” value was “by far the most potent” and the “Lowest Concentration For Significant Memory Enhancement” value is 6 × 10^-14 Moles/Mouse. Moreover, the “amnestic effect on retention of FAAT” value in the test with CD-1 male mice [2] (post-training ICV) is reported as “amnestic”.
Regarding `N[C@@H](Cc1ccccc1)C(=O)N[C@@H](Cc1ccccc1)C(=O)O` [Phe Phe] (H-Phe-Phe-OH), the “amnestic effect on retention of FAAT” value in the test with CD-1 male mice [2] (post-training ICV) is recorded as “amnestically ineffective”. Further, the “mean trials to criterion ±SEM” value in the test on CD-1 male mice [2] (post-training ICV, 6.14 nmol per mouse, vehicle 6.80±0.21) was determined as 7.0±0.42.
For the compound “Pro Arg Pro Gly Pro Gln Gln Phe Phe Gly Leu Met-NH2 (PRPGPQQFFGLM-NH2) [Substance Pro]”, the “effect on trophic and toxic effects of β-A4 on hippocampal neurons” value in test [4] is “counteract trophic and toxic effects of B-A4 on hippocampal neurons in culture”. In addition, the “memory retention (literature)” value in test [5] is recorded as “enhance memory retention”.
Consider `CC(C)[C@H](N)C(=O)N[C@@H](Cc1ccccc1)C(=O)N[C@@H](Cc1ccccc1)C(=O)O` [Val Phe Phe] (H-Val-Phe-Phe-OH), for which, in the test on CD-1 male mice [3] (weakly trained animals), the “dose at which statistically significant memory enhancement found” value is 1.9×10^-11 moles/mouse and the memory-enhancing effect result is listed as “memory enhancer”. Further, the “Lowest Concentration For Significant Memory Enhancement” value with CD-1 male mice [3] (weakly trained mice) is reported as 1.9 × 10^-11 Moles/Mouse. In addition, the “amnestic efficacy/potency compared with another peptide” value with CD-1 male mice [2] (ICV) is “not significantly different from that of the β-A4 homologue [Gln^11 ]β-(1-28)”. Further, the “dose at which amnesia first noted” value in the test with CD-1 male mice [2] (ICV, well-trained animals) is listed as 3×10^-9 moles/mouse. The “amnestic effect on retention of FAAT” value with CD-1 male mice [2] (post-training ICV) was “amnestic”.
As to VFFAEDVGSNK [β-(18-28)], in the test on CD-1 male mice [1], the “amnestic effect on retention of FAAT (earlier publications)” value is reported as “amnestic”.
Take “His Ser Asp Ala Val Phe Thr Asp Asn Tyr Thr Arg Leu Lys Gln Met Ala Val Lys Lys Tyr Leu Asn Ser Ile Leu Asn-NH2 (HSDAVFTDNYTRLKQMAVKKYLNSILN-NH2) [VIP]”: the “amnestic effect on retention of FAAT (earlier publications)” value in the test with CD-1 male mice [1] is “amnestic”.
For VFFAE [Val Phe Phe Ala Glu], the “amnestic efficacy/potency compared with another peptide” value in the test with CD-1 male mice [2] (ICV) is “lesser potency of Val Phe Phe Ala Glu than that of Val Phe Phe”. Moreover, the “amnestic effect on retention of FAAT” value with CD-1 male mice [2] (post-training ICV) is “amnestic”.
For KLVFFAE [Lys Leu Val Phe Phe Ala Glu], the “amnestic effect on retention of FAAT” value in the test on CD-1 male mice [2] (post-training ICV) is recorded as “not amnestic”.
